According to patent publication US5510379A, “Sulfonate ACAT inhibitors” (priority 1994, dated 1996):
Where two headings read alike, the source gives them in different places.

How the values were obtained:
[1] = target: T1, acyl-CoA: cholesterol acyltransferase (ACAT) (Rattus norvegicus, UniProt Q7TQM4); assay: in vitro ACAT inhibition test in rat liver microsomes (LAI); assay type: biochemical
T1 construct: tissue preparation containing rat liver microsomes; from tissue; host or cells: rat liver microsomes
T1 sequence (Q7TQM4 1-524): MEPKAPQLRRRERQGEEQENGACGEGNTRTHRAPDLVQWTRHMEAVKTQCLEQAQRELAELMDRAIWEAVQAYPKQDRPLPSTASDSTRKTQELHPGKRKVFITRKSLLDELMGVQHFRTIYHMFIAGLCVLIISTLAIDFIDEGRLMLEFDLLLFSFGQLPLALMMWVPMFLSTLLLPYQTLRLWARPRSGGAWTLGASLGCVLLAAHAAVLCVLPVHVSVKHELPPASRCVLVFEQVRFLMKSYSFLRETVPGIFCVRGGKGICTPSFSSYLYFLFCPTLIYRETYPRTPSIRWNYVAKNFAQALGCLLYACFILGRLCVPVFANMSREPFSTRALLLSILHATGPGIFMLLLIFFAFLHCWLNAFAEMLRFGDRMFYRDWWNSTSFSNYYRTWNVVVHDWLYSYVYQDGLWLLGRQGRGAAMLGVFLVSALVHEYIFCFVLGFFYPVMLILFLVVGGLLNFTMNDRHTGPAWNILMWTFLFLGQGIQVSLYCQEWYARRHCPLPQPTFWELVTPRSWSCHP
Procedure: The ability of representative compounds of the present invention to inhibit ACAT was measured using an in vitro test more fully described in F.J. Field and R.G. Salone, Biochemica et Biophysica Acta, 772:557-570 (1982). The test assesses the ability of a test compound to inhibit the acylation of cholesterol by oleic acid by measuring the amount of radiolabeled cholesterol oleate formed from radiolabeled oleic acid in a tissue preparation containing rat liver microsomes (designated LAI).

male Sprague-Dawley rats = assay: in vivo screen APCC in cholesterol-fed rats; conditions: Rattus norvegicus, po, 30 mg/kg by gavage, high fat, high cholesterol diet overnight, versus vehicle and diet only, read-out: APCC percent change in total cholesterol (%TC) from control animals
Description: In an in vivo screen designated APCC, male Sprague-Dawley rats (200-225 g body weight) were randomly divided into treatment groups and dosed at 4 PM with either vehicle (CMC/Tween) or suspensions of invention compounds in vehicle. The normal chow diet was then replaced with a high fat, high cholesterol diet (5.5% peanut oil, 1.5% cholesterol, and 0.5% cholic acid). The rats consumed this diet ad libitum during the night and were sacrificed at 8 AM to obtain blood samples for cholesterol analysis using standard procedures. Statistical differences between mean cholesterol values for the same vehicle were determined using analysis of variance followed by Fisher's least significant test. The results of this trial for representative compounds of the present invention also appear in Table I as the percent change in total cholesterol (%TC) from control animals given vehicle and diet only. All compounds in the APCC test reported in Table 1 were administered by gavage at 30 mg/kg.

[2] = rat liver microsomes, formation of radiolabeled cholesterol oleate from radiolabeled oleic acid, read-out: LAI IC50

Row | Compound | IC50 [1, 2] | change in vivo at 30 mg/kg (male Sprague-Dawley rats) | IC50 [1]
1 | CC(C)c1cc(C(C)C)c(OS(=O)(=O)CC(=O)N(Cc2ccccc2)Cc2ccccc2)c(C(C)C)c1 [Example 1, 2,4,6-Triisopropylphenyl N,N-dibenzylcarbamoylmethylsulfonate] | > 5000 nM | -7% | 
2 | CC(C)c1cc(C(C)C)c(NC(=O)CS(=O)(=O)Oc2c(C(C)C)cccc2C(C)C)c(C(C)C)c1 [Example 6] | 1660 nM | -31% | 
3 | CC(C)c1cccc(C(C)C)c1OS(=O)(=O)CC(=O)NC(c1ccccc1)c1ccccc1 [Example 4, 2,6-Diisopropylphenyl N-diphenylmethylcarbamoylmethyl sulfonate] | 1800 nM | -43% | 
4 | CSc1ccc(CN(C(=O)CS(=O)(=O)Oc2c(C(C)C)cc(C(C)C)cc2C(C)C)C(C)C)cc1 [Example 7, 2,4,6-Triisopropylphenyl N-isopropyl-N-(4-thiomethylphenylmethyl)carbamoylmethyl sulfonate] | 3600 nM | -17% | 
5 | CCCCCCCCCCCCNC(=O)CS(=O)(=O)Oc1c(C(C)C)cccc1C(C)C [Example 3, 2,6-Diisopropylphenyl N-dodecyl carbamoylmethyl sulfonate] | 3000 nM | -3% | 
6 | CC(C)c1cccc(C(C)C)c1OS(=O)(=O)CC(=O)O [Example 5, 2,6-Diisopropylphenoxysulfonyl acetic acid] |  | -31% | > 50000 nM

Further compounds by falling IC50 [1, 2], results first:

Row | IC50 [1, 2] | Compound | change in vivo at 30 mg/kg (male Sprague-Dawley rats) | IC50 [1]
7 | 1500 nM | CC(C)c1cccc(C(C)C)c1OC(=O)CS(=O)(=O)Oc1c(C(C)C)cccc1C(C)C [Example 8, 2,6-Diisopropylphenyl (2,6-diisopropylphenoxycarbonyl)methylsulfonate] | -21% | 
8 | 790 nM | CC(C)c1cc(C(C)C)c(OS(=O)(=O)CC(=O)NC(c2ccccc2)c2ccccc2)c(C(C)C)c1 [Example 2, 2,4,6-Triisopropylphenyl N-diphenylmethylcarbamoylmethyl sulfonate] | -19% | 
9 | 27 nM | CC(C)c1cccc(C(C)C)c1NC(=O)CS(=O)(=O)Oc1c(C(C)C)cccc1C(C)C [Example 10, 2.6-Diisopropylphenyl N-(2,6-diisopropylphenyl)carbamoylmethylsulfonate] | -42% | 
10 | 7 nM | CC(C)c1cc(C(C)C)c(OS(=O)(=O)CC(=O)Nc2c(C(C)C)cccc2C(C)C)c(C(C)C)c1 [Example 9] | -61% | 
